pIC50: −log10 of the molar value.

This assay deals with Wnt pathway (Sp5-Luc reporter, SW480 cells). In words: Sp5-Luc reporter gene screening assay for Wnt activity in SW480 colon carcinoma cells. Particulars: Homo sapiens. The format is cell-based. An excerpt: The screening assay for Wnt activity is described as follows. Reporter cell lines can be generated by stably transducing cancer cell lines (e.g., colon cancer) or primary cells (e.g., IEC-6 intestinal cells) with a lentiviral construct that includes a Wnt-responsive promoter driving expression of the firefly luciferase gene.
SW480 colon carcinoma cells were transduced with a lentiviral vector expressing luciferase with a human Sp5 promoter consisting of a sequence of eight TCF/LEF binding sites. SW480 cells stably expressing the Sp5-Luc reporter gene and a hygromycin resistance gene were selected by treatment with 150 μg/ml of hygromycin for 7 days. These stably transduced SW480 cells were expanded in cell culture and used for all further screening activities. For Sp5-Luc reporter gene assays, the cells were plated at 10,000 cells/well in 96-well plates with growth medium containing 10% fetal calf serum and incubated overnight at 37° C. and 5% CO2. Each compound was dissolved in DMSO as a 10 mM stock in standard j-vials and used to prepare compound source plates in dose-response format with 3-fold serial dilutions and a 10 mM top concentration. Compound transfer from serially diluted source plates to assay plates containing the cells was accomplished using a pintool (Multimek 96, Beckman equipped with V&P Scientific FP1S50H pins) based liquid handling protocol. This protocol used a slotted pin to transfer 50 nl of compound from a source plate well to an assay plate well containing 50 μl of cells in growth medium. […] Control wells received 50 nl of DMSO treatment for normalization and calculating IC50 values. The treated cells were incubated at 37° C. and 5% CO2 for an additional forty-two hours. Following incubation, the growth medium was removed and 50 μl of BrightGlo luminescence reagent (Promega) was added to each well of the 96-well assay plates. The plates were placed on an orbital shaker for 5 min and then luminescence was quantified on the Victor3 (Perkin Elmer) plate reader. Readings were normalized to DMSO only treated cells, and normalized activities were utilized for IC50 calculations using the dose-response log (inhibitor) vs. response-variable slope (four parameters) nonlinear regression feature available in GraphPad Prism 5.0 or 6.0.
In general terms: Reporter assays use an easily measured gene product as a stand-in for the process of interest.
`CC(C)CC(=O)Nc1cncc(-c2cc3c(-c4nc5c(-c6ccccc6F)nccc5[nH]4)n[nH]c3cn2)c1` [Compound 54, N-(5-(3-(4-(2-Fluorophenyl)-1H-imidazo[4,5-c]pyridin-2-yl)-1H-pyrazolo[3,4-c]pyridin-5-yl)pyridin-3-yl)-3-methylbutanamide] had a pIC50 of 7.32.
`Fc1cccc(-c2nccc3[nH]c(-c4n[nH]c5cnc(-c6cncc(OCc7ccccc7)c6)cc45)nc23)c1` [Compound 950, 5-(5-(Benzyloxy)pyridin-3-yl)-3-(4-(3-fluorophenyl)-1H-imidazo[4,5-c]pyridin-2-yl)-1H-pyrazolo[3,4-c]pyridine] showed a negative logarithm of the IC50 (pIC50) of 5.70.
The result for `CCCC(=O)Nc1cncc(-c2cc3c(-c4nc5c(-c6ccc(F)cc6)nccc5[nH]4)n[nH]c3cn2)c1` [Compound 43, N-(5-(3-(4-(4-Fluorophenyl)-1H-imidazo[4,5-c]pyridin-2-yl)-1H-pyrazolo[3,4-c]pyridin-5-yl)pyridin-3-yl)butyramide] reads 6.89; that for `O=C(Nc1cncc(-c2cc3c(-c4nc5c(-c6cccs6)nccc5[nH]4)n[nH]c3cn2)c1)C1CCC1` [Compound 332, N-(5-(3-(4-(Thiophen-2-yl)-1H-imidazo[4,5-c]pyridin-2-yl)-1H-pyrazolo[3,4-c]pyridin-5-yl)pyridin-3-yl)cyclobutanecarboxamide], 7.42; that for `Cc1cn(-c2nccc3[nH]c(-c4n[nH]c5cnc(-c6cncc(NC(=O)CC(C)C)c6)cc45)nc23)cn1` [Compound 184], 7.39.
`CC(C)(C)CC(=O)Nc1cncc(-c2cc3c(-c4nc5cnccc5[nH]4)n[nH]c3cn2)c1` [Compound 250, N-(5-(3-(1H-Imidazo[4,5-c]pyridin-2-yl)-1H-pyrazolo[3,4-c]pyridin-5-yl)pyridin-3-yl)-3,3-dimethylbutanamide] had a negative-log IC50 (pIC50) of less than 5.00.
The result for `CC(C)CC(=O)Nc1cncc(-c2cc3c(-c4nc5c(-c6cc(F)cc(OCCN(C)C)c6)nccc5[nH]4)n[nH]c3cn2)c1` [Compound 1262, N-(5-(3-(4-(3-(2-(Dimethylamino)ethoxy)-5-fluorophenyl)-1H-imidazo[4,5-c]pyridin-2-yl)-1H-pyrazolo[3,4-c]pyridin-5-yl)pyridin-3-yl)-3-methylbutanamide] reads 5.69; that for `CCCCC(=O)Nc1cncc(-c2cc3c(-c4nc5c(-c6ccccn6)nccc5[nH]4)n[nH]c3cn2)c1` [Compound 148, N-(5-(3-(4-(Pyridin-2-yl)-1H-imidazo[4,5-c]pyridin-2-yl)-1H-pyrazolo[3,4-c]pyridin-5-yl)pyridin-3-yl)pentanamide], 6.70.
Take `Fc1cccc(-c2nccc3[nH]c(-c4n[nH]c5cnc(-c6cncc(OCCN7CCCC7)c6)cc45)nc23)c1` [Compound 946, 3-(4-(3-Fluorophenyl)-1H-imidazo[4,5-c]pyridin-2-yl)-5-(5-(2-(pyrrolidin-1-yl)ethoxy)pyridin-3-yl)-1H-pyrazolo[3,4-c]pyridine]: the negative logarithm of the IC50 (pIC50) is less than 5.00.
The result for `CC(C)(C)C(=O)Nc1cncc(-c2cc3c(-c4nc5c(N6CCCCC6)nccc5[nH]4)n[nH]c3cn2)c1` [Compound 164, N-(5-(3-(4-(Piperidin-1-yl)-1H-imidazo[4,5-c]pyridin-2-yl)-1H-pyrazolo[3,4-c]pyridin-5-yl)pyridin-3-yl)pivalamide] reads 6.85.
Take `CC(C)CC(=O)Nc1cncc(-c2cc3c(-c4nc5c(-c6cc(F)cc(OCCN7CCCC7)c6)nccc5[nH]4)n[nH]c3cn2)c1` [Compound 1306, N-(5-(3-(4-(3-Fluoro-5-(2-(pyrrolidin-1-yl)ethoxy)phenyl)-1H-imidazo[4,5-c]pyridin-2-yl)-1H-pyrazolo[3,4-c]pyridin-5-yl)pyridin-3-yl)-3-methylbutanamide]: the negative logarithm of the IC50 (pIC50) was 5.37.
On to `O=C(CC1CCCCC1)Nc1cncc(-c2cc3c(-c4nc5c(-c6cccc(F)c6)nccc5[nH]4)n[nH]c3cn2)c1` [Compound 951, 2-Cyclohexyl-N-(5-(3-(4-(3-fluorophenyl)-1H-imidazo[4,5-c]pyridin-2-yl)-1H-pyrazolo[3,4-c]pyridin-5-yl)pyridin-3-yl)acetamide], for which the pIC50 is 5.98. Against the preceding compound, the pIC50 is 0.61 log units higher.
Under `CCCC(=O)Nc1cncc(-c2cc3c(-c4nc5c(-c6ccccc6F)nccc5[nH]4)n[nH]c3cn2)c1` [Compound 69, N-(5-(3-(4-(2-Fluorophenyl)-1H-imidazo[4,5-c]pyridin-2-yl)-1H-pyrazolo[3,4-c]pyridin-5-yl)pyridin-3-yl)butyramide] stands 7.48; under `CCC(=O)Nc1cncc(-c2cc3c(-c4nc5c(-c6cccc(F)c6)nccc5[nH]4)n[nH]c3cn2)c1` [Compound 1, N-(5-(3-(4-(3-Fluorophenyl)-1H-imidazo[4,5-c]pyridin-2-yl)-1H-pyrazolo[3,4-c]pyridin-5-yl)pyridin-3-yl)propionamide], 7.47; under `c1ccc(CNCc2cncc(-c3cc4c(-c5nc6c(-c7cccnc7)nccc6[nH]5)n[nH]c4cn3)c2)cc1` [Compound 101, N-Benzyl-1-(5-(3-(4-(pyridin-3-yl)-1H-imidazo[4,5-c]pyridin-2-yl)-1H-pyrazolo[3,4-c]pyridin-5-yl)pyridin-3-yl)methanamine], 7.29.
Compound `Fc1cccc(-c2nccc3[nH]c(-c4n[nH]c5cnc(-c6cncc(OC7CCCCC7)c6)cc45)nc23)c1` [Compound 943, 5-(5-(Cyclohexyloxy)pyridin-3-yl)-3-(4-(3-fluorophenyl)-1H-imidazo[4,5-c]pyridin-2-yl)-1H-pyrazolo[3,4-c]pyridine] gave a pIC50 of 6.59.
Under `Fc1cccc(-c2nccc3[nH]c(-c4n[nH]c5cnc(-c6ccncc6)cc45)nc23)c1` [Compound 952, 3-(4-(3-Fluorophenyl)-1H-imidazo[4,5-c]pyridin-2-yl)-5-(pyridin-4-yl)-1H-pyrazolo[3,4-c]pyridine] stands 7.49.
As for `CC(C)(C)CC(=O)Nc1cncc(-c2cc3c(-c4nc5c(-c6ccccc6F)nccc5[nH]4)n[nH]c3cn2)c1` [Compound 68, N-(5-(3-(4-(2-Fluorophenyl)-1H-imidazo[4,5-c]pyridin-2-yl)-1H-pyrazolo[3,4-c]pyridin-5-yl)pyridin-3-yl)-3,3-dimethylbutanamide], the pIC50 is 6.04.
Turning to `Fc1cccc(-c2nccc3[nH]c(-c4n[nH]c5cnc(-c6cncc(OC7CCNCC7)c6)cc45)nc23)c1` [Compound 944, 3-(4-(3-Fluorophenyl)-1H-imidazo[4,5-c]pyridin-2-yl)-5-(5-(piperidin-4-yloxy)pyridin-3-yl)-1H-pyrazolo[3,4-c]pyridine], the negative-log IC50 (pIC50) was less than 5.00.
`CN1CCN(c2nccc3[nH]c(-c4n[nH]c5cnc(-c6cncc(N)c6)cc45)nc23)CC1` [Compound 211, 5-(3-(4-(4-Methylpiperazin-1-yl)-1H-imidazo[4,5-c]pyridin-2-yl)-1H-pyrazolo[3,4-c]pyridin-5-yl)pyridin-3-amine] had a negative logarithm of the IC50 (pIC50) of 6.93.
`CC(C)CC(=O)Nc1cncc(-c2cc3c(-c4nc5c(-c6cccs6)nccc5[nH]4)n[nH]c3cn2)c1` [Compound 314, 3-Methyl-N-(5-(3-(4-(thiophen-2-yl)-1H-imidazo[4,5-c]pyridin-2-yl)-1H-pyrazolo[3,4-c]pyridin-5-yl)pyridin-3-yl)butanamide]: the pIC50 was 6.44.
Turning to `CC(C)(C)C(=O)Nc1cncc(-c2cc3c(-c4nc5c(-c6ccoc6)nccc5[nH]4)n[nH]c3cn2)c1` [Compound 294, N-(5-(3-(4-(Furan-3-yl)-1H-imidazo[4,5-c]pyridin-2-yl)-1H-pyrazolo[3,4-c]pyridin-5-yl)pyridin-3-yl)pivalamide], the negative-log IC50 (pIC50) is 7.41.
The result for `c1cncc(-c2nccc3[nH]c(-c4n[nH]c5cnc(-c6cncc(CN7CCCCC7)c6)cc45)nc23)c1` [Compound 93, 5-(5-(Piperidin-1-ylmethyl)pyridin-3-yl)-3-(4-(pyridin-3-yl)-1H-imidazo[4,5-c]pyridin-2-yl)-1H-pyrazolo[3,4-c]pyridine] reads less than 5.00; that for `CCC(=O)Nc1cncc(-c2cc3c(-c4nc5c(-c6cccs6)nccc5[nH]4)n[nH]c3cn2)c1` [Compound 313, N-(5-(3-(4-(Thiophen-2-yl)-1H-imidazo[4,5-c]pyridin-2-yl)-1H-pyrazolo[3,4-c]pyridin-5-yl)pyridin-3-yl)propionamide], 7.54.

For orientation: pIC50 means the negative decadic logarithm of the IC50, by convention in mol/L. A high value points to a small IC50.

The values are drawn from patent publication US9844536B2, “3-(1H-imidazo[4,5-C]pyridin-2-yl)-1H-pyrazolo[3,4-C]pyridine and therapeutic uses thereof” (Samumed, LLC, priority 2014, dated 2017).
